Experimental data published in paper PMC9369162, “Substrates of the Human Brain Proton-Organic Cation Antiporter and Comparison with Organic Cation Transporter 1 Activities” (International Journal of Molecular Sciences, 2022).

test system: not given; test: not given; parameters: method as in PMID 19243716; conditions: published studies; cited from earlier work

For `c1cnc2cc3c(cc2n1)[C@@H]1CNC[C@H]3C1` [varenicline], the “variation of blood concentrations” value is given as “more than 100 fold”.

biological target: T1, OCT1 (Homo sapiens, UniProt O15245); test: not given; parameters: method as in PMID 34093211; conditions: cited from earlier work
T1 construct: expressed in transfected cells; host or cells: HEK293
T1 sequence (O15245 1-554): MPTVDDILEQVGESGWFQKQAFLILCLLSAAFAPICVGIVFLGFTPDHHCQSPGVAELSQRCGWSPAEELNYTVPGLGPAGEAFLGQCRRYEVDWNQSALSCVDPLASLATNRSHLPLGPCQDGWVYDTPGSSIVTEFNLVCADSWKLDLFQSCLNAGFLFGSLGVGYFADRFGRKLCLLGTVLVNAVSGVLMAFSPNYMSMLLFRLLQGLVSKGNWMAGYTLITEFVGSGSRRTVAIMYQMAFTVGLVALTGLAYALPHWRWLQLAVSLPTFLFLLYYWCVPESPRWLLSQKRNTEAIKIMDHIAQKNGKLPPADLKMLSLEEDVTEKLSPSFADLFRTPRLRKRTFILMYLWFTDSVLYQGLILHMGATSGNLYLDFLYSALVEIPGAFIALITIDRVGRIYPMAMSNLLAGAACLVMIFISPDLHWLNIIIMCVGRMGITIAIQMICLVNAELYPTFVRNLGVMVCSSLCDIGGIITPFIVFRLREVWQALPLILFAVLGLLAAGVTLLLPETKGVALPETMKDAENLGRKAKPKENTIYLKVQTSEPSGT

In the case of `CN(C)CCC=C1c2ccccc2CCc2ccccc21` [Amitriptyline], the OCT1 substrate status is listed as “not OCT1 substrates”.

biological target: T1, OCT1; test: Cell uptake in OCT1 overexpressing HEK293 cells over empty-vector transfected cells; format: cell-based; conditions: not given

Compared with `COc1ccc2c3c1O[C@H]1C(=O)CC[C@@]4(O)[C@@H](C2)N(C)CC[C@]314` [Oxycodone], `COc1ccc2c3c1O[C@H]1C(=O)CC[C@H]4[C@@H](C2)N(C)CC[C@]314` [Hydrocodone] is higher in “OCT1 Ratio” value: 0.90 for the first, 1.20 for the second.

Compared with `COc1ccc2c3c1O[C@H]1[C@@H](O)CC[C@H]4[C@@H](C2)N(C)CC[C@@]341` [Dihydrocodeine], `CNCC1CCCCC1(O)c1cccc(OC)c1` (centres unmarked) [N-Desmethyltramadol] is higher in “OCT1 Ratio” value: 0.80 for the first, 2.40 for the second.

Going from `CC(C)(C)NCC(O)c1ccc(O)c(CO)n1` (centres unmarked) [Pirbuterol] to `CC(C)(C)NCC(O)c1cc(Cl)c(N)c(Cl)c1` (centres unmarked) [Clenbuterol], the “OCT1 Ratio” value falls from 80.90 to 1.10.

Compared with `CN[C@@H](C)[C@H](O)c1ccccc1` [Ephedrine], `CCOC(=O)c1cncn1[C@H](C)c1ccccc1` [Etomidate] is lower in “OCT1 Ratio” value: 1.50 for the first, 0.94 for the second.

Going from `N[C@@H]1C[C@H]1c1ccccc1` (racemic) [Tranylcypromine] to `COC(=O)C(c1ccccc1)C1CCCCN1` (centres unmarked) [Methylphenidate], the “OCT1 Ratio” value rises from 1.60 to 1.90.

Compared with `Nc1nc2c(ncn2COCCO)c(=O)[nH]1` [Acyclovir], `Cn1c(=O)c2[nH]cnc2n(C)c1=O` [Theophyllin] is lower in “OCT1 Ratio” value: 2.00 for the first, 1.00 for the second.

First: CNC1(c2ccccc2Cl)CCCCC1=O (centres unmarked) [Ketamine]
Second: CCC1(c2cccc(O)c2)CCCCN(C)C1 (centres unmarked) [Meptazinol]
The “OCT1 Ratio” value of the first is lower: 1.10 for the first, 3.20 for the second.

Compared with `CNCC[C@H](Oc1cccc2ccccc12)c1cccs1` [Duloxetine], `CCOC(=O)[C@]1(c2ccccc2)CCC=C[C@H]1NC` [Nortilidine] is higher in “OCT1 Ratio” value: 1.20 for the first, 1.62 for the second.

First: CN1[C@@H]2C[C@@H](OC(=O)[C@H](CO)c3ccccc3)C[C@H]1[C@@H]1O[C@@H]12 [Scopolamin]
Second: CCOC(=O)C1(c2ccccc2)CCC=CC1N(C)C (centres unmarked) [Tilidine]
The “OCT1 Ratio” value of the first is lower: 1.10 for the first, 1.30 for the second.

First: CNC(=C[N+](=O)[O-])NCCSCc1ccc(CN(C)C)o1 [Ranitidin]
Second: CCN(CC)CCNC(=O)c1cc(Cl)c(N)cc1OC [Metoclopramide]
The “OCT1 Ratio” value of the first is higher: 18.10 for the first, 1.80 for the second.

Going from `COc1cccc2c1C(=O)c1c(O)c3c(c(O)c1C2=O)C[C@@](O)(C(C)=O)C[C@@H]3O[C@H]1C[C@H](N)[C@H](O)[C@H](C)O1` [Daunorubicin] to `Fc1ccc([C@@H]2CCNC[C@H]2COc2ccc3c(c2)OCO3)cc1` [Paroxetin], the “OCT1 Ratio” value rises from 1.10 to 1.17.

First: CN(C)CC(c1ccc(O)cc1)C1(O)CCCCC1 (centres unmarked) [Desmethylvenlafaxine]
Second: N#CC(CCN1CCC(C(N)=O)(N2CCCCC2)CC1)(c1ccccc1)c1ccccc1 [Piritramide]
The “OCT1 Ratio” value of the first is higher: 3.30 for the first, 1.18 for the second.

same assay, conditions: cell uptake in OCT1 overexpressing cells over uptake in mock transfected cells

First: CCCC(=O)Nc1ccc(OCC(O)CNC(C)C)c(C(C)=O)c1 (centres unmarked) [Acebutolol]
Second: CC(C)NCC(O)COc1cccc2ccccc12 (centres unmarked) [Propranolol]
The “OCT1 Ratio” value of the first is higher: 5.20 for the first, 1.10 for the second.

First: CC(C)NCC(O)COc1cccc2[nH]ccc12 (centres unmarked) [Pindolol]
Second: CC(C)NCC(O)COc1ccc(COCCOC(C)C)cc1 (centres unmarked) [Bisoprolol]
The “OCT1 Ratio” value of the first is higher: 1.20 for the first, 1.00 for the second.

First: CC(CCc1ccc(O)cc1)NCCc1ccc(O)c(O)c1 (centres unmarked) [Dobutamine]
Second: CNC[C@H](O)c1cccc(O)c1 [Phenylephrine]
The “OCT1 Ratio” value of the first is higher: 14.70 for the first, 10.60 for the second.

Compared with `CN(C)CCC=C1c2ccccc2CCc2ccccc21` [Amitriptyline], `CN(C)CCC=C1c2ccccc2COc2ccccc21` [Doxepin] is higher in “OCT1 Ratio” value: 1.20 for the first, 1.30 for the second.

Compared with `NC(=O)c1cnccn1` [Pyrazinamide], `NNC(=O)c1ccncc1` [Isoniazid] is higher in “OCT1 Ratio” value: 0.80 for the first, 0.94 for the second.

`Cn1c(=O)[nH]c2ncn(C)c2c1=O` [Paraxanthine] and `Cc1nccn1CC1CCc2c(c3ccccc3n2C)C1=O` (centres unmarked) [Ondansetron] are the same in “OCT1 Ratio” value: 1.00 for the first, 1.00 for the second.

Compared with `C[C@@H](O)[C@H]1C(=O)N2C(C(=O)O)=C(S[C@@H]3CN[C@H](C(=O)N(C)C)C3)[C@H](C)[C@H]12` [Meropenem], `CC[C@@H](C(N)=O)N1CCCC1=O` [Levetiracetam] is lower in “OCT1 Ratio” value: 1.10 for the first, 1.00 for the second.

Compared with `CN[C@@H]1CCc2[nH]c3ccc(C(N)=O)cc3c2C1` [Frovatriptan], `CN(C)CCc1c[nH]c2ccc(C[C@H]3COC(=O)N3)cc12` [Zolmitriptan] is lower in “OCT1 Ratio” value: 33.10 for the first, 10.00 for the second.

Compared with `COc1ccccc1N1CCN(CCCNc2cc(=O)n(C)c(=O)n2C)CC1` [Urapidil], `COc1cc(OC)c(C(=O)CCCN2CCCC2)c(OC)c1` [Buflomedil] is lower in “OCT1 Ratio” value: 1.10 for the first, 1.00 for the second.

Going from `CN1CCC[C@@H]1Cc1c[nH]c2ccc(CCS(=O)(=O)c3ccccc3)cc12` [Eletriptan] to `COc1cc(Cc2cnc(N)nc2N)cc(OC)c1OC` [Trimethoprim], the “OCT1 Ratio” value rises from 1.20 to 1.90.

Compared with `Cc1ncc(C[n+]2csc(CCO)c2C)c(N)n1` [Thiamine], `C[N+](C)(C)CCO` [Choline] is lower in “OCT1 Ratio” value: 11.60 for the first, 1.50 for the second.

Compared with `C[N+](C)(C)CC(=O)O` [Betaine], `CC12CC3CC(C)(C1)CC(N)(C3)C2` [Memantine] is higher in “OCT1 Ratio” value: 1.00 for the first, 1.10 for the second.
